The text below walks through data of US9932314B2, “Pyrazole compounds and their use as T-type calcium channel blockers” (IDORSIA PHARMACEUTICALS LTD, priority 2015, dated 2018).

T1 sequence (O95180 whole entry): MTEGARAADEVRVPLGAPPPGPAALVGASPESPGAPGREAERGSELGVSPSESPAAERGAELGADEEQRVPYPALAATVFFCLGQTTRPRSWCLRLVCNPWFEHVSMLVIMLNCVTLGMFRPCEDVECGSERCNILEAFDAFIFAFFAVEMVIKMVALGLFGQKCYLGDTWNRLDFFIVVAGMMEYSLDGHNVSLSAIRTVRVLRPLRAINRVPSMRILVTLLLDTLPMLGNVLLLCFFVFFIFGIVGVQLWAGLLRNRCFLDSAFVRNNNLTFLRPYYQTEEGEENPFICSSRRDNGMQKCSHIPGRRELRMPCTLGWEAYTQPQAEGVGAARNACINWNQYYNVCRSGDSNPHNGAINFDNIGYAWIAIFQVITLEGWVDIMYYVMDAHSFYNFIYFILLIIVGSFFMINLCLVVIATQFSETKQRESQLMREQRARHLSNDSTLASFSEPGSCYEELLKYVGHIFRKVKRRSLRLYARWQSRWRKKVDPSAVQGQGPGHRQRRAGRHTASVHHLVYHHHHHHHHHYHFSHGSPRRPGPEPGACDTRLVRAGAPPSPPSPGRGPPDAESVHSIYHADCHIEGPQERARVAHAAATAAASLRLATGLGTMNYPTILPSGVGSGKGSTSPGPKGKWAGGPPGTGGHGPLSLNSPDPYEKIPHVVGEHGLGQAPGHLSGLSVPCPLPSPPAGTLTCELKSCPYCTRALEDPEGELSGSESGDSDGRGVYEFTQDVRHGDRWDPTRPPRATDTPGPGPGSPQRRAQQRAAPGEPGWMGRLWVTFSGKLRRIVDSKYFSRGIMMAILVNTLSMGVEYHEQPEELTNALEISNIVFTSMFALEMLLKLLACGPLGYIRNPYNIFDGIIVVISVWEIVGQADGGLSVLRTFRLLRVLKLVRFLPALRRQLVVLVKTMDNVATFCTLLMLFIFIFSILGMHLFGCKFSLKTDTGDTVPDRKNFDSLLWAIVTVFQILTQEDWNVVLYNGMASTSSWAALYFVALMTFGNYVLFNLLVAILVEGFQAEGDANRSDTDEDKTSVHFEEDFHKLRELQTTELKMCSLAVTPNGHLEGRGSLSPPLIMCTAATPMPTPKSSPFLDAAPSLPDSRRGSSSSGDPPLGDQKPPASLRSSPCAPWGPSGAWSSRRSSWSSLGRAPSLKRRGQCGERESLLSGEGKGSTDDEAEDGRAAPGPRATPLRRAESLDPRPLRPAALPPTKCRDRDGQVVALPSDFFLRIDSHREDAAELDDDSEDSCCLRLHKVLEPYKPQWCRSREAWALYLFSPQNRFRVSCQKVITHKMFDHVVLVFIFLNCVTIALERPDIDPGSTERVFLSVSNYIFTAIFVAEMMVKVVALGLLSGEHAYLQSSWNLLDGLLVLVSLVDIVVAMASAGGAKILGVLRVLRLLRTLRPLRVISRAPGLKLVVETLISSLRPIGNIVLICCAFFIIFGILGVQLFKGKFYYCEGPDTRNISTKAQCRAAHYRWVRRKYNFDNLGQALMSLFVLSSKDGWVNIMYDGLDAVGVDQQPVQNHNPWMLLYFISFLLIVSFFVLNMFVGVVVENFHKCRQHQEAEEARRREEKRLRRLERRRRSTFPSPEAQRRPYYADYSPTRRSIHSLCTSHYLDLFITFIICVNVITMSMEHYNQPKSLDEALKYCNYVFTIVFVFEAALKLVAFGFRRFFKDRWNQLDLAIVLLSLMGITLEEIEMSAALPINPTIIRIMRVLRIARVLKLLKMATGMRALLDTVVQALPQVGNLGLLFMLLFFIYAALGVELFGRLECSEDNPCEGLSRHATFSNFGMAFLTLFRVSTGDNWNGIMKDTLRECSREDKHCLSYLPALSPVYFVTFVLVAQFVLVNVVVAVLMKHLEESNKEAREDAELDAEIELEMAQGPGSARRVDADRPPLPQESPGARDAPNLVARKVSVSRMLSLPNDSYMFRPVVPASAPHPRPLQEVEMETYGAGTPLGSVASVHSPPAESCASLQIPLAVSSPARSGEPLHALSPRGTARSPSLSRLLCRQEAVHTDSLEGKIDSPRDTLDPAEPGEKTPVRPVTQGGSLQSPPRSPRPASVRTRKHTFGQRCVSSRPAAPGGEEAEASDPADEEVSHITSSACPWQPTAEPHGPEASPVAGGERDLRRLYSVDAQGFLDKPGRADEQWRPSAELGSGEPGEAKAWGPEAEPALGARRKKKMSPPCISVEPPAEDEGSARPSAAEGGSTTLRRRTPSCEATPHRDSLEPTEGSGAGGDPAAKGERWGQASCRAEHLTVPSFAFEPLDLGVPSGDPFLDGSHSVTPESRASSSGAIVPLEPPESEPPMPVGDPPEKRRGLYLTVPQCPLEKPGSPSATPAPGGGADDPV

The assay addresses T1, voltage-dependent T-type calcium channel subunit alpha-1G (Cav3.2) (Homo sapiens, UniProt O95180).
T1 construct: expressed in transfected cells; host or cells: HEK293
As to the kind of experiment: FLIPR calcium flux assay, HEK293 cells recombinantly expressing Cav3.2. Format: cell-based. The note with it: Cav3.2-channel, Fluo-4-AM, 3 min incubation, stimulation with 10 mM CaCl2. Summed up:
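HEK293 cells stably expressing human Cav3.2 were loaded with Fluo-4-AM. Compounds diluted in TEAC buffer (pH 7.2) were preincubated for 3 min, then Ca2+ entry was triggered by 10 mM final CaCl2. Inhibition curves were fitted sigmoidally to the area under the fluorescence trace.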
For orientation: Calcium flux is commonly read through the fluorescence of an indicator in the cells.
As to `Cc1cc(CC(=O)Nc2ccn(Cc3ccc(C#N)cn3)n2)cc(C)c1OCC(F)(F)F` [Example 414, N-[1-(5-Cyano-pyridin-2-ylmethyl)-1H-pyrazol-3-yl]-2-[3,5-dimethyl-4-(2,2,2-trifluoro-ethoxy)-phenyl]-acetamide], the IC50 came to 0.0064 µM.

Consider `Cc1cc(CC(=O)Nc2ccn(Cc3ccc(F)c(C#N)n3)n2)cc(C)c1OCC(F)(F)F` [Example 415, N-[1-(6-Cyano-5-fluoro-pyridin-2-ylmethyl)-1H-pyrazol-3-yl]-2-[3,5-dimethyl-4-(2,2,2-trifluoro-ethoxy)-phenyl]-acetamide], for which the IC50 came out at 0.0049 µM.

For the compound `Cc1cc(CC(=O)Nc2ccn(Cc3cc(C#N)c(F)cn3)n2)cc(C)c1OCC(F)(F)F` [Example 416, N-[1-(4-Cyano-5-fluoro-pyridin-2-ylmethyl)-1H-pyrazol-3-yl]-2-[3,5-dimethyl-4-(2,2,2-trifluoro-ethoxy)-phenyl]-acetamide], the IC50 came out at 0.017 µM.

`Cc1cc(CC(=O)Nc2ccn(Cc3ccc(C#N)cn3)n2)cnc1OCC(F)(F)F` [Example 417, N-[1-(5-Cyano-pyridin-2-ylmethyl)-1H-pyrazol-3-yl]-2-[5-methyl-6-(2,2,2-trifluoro-ethoxy)-pyridin-3-yl]-acetamide]: the IC50 was found to be 0.037 µM.

As to `Cc1cc(CC(=O)Nc2ccn(Cc3ccc(F)c(C#N)n3)n2)cnc1OCC(F)(F)F` [Example 418, N-[1-(6-Cyano-5-fluoro-pyridin-2-ylmethyl)-1H-pyrazol-3-yl]-2-[5-methyl-6-(2,2,2-trifluoro-ethoxy)-pyridin-3-yl]-acetamide], the IC50 was determined as 0.094 µM.

Regarding `Cc1cc(CC(=O)Nc2ccn(Cc3cc(C#N)c(F)cn3)n2)cnc1OCC(F)(F)F` [Example 419, N-[1-(4-Cyano-5-fluoro-pyridin-2-ylmethyl)-1H-pyrazol-3-yl]-2-[5-methyl-6-(2,2,2-trifluoro-ethoxy)-pyridin-3-yl]-acetamide], the IC50 stood at 9.43 µM.

`Cc1cc(CC(=O)Nc2ccn(Cc3ccc(F)c(C#N)n3)n2)ccc1OCCC(F)(F)F` [Example 420, N-[1-(6-Cyano-5-fluoro-pyridin-2-ylmethyl)-1H-pyrazol-3-yl]-2-[3-methyl-4-(3,3,3-trifluoro-propoxy)-phenyl]-acetamide]: the 50% inhibitory concentration (IC50) amounted to 0.0087 µM.

In the case of `Cc1cc(CC(=O)Nc2ccn(Cc3cc(C#N)c(F)cn3)n2)ccc1OCCC(F)(F)F` [Example 421, N-[1-(4-Cyano-5-fluoro-pyridin-2-ylmethyl)-1H-pyrazol-3-yl]-2-[3-methyl-4-(3,3,3-trifluoro-propoxy)-phenyl]-acetamide], the IC50 is 0.041 µM.

Consider “N-[1-(5-Cyano-pyridin-2-ylmethyl)-1H-pyrazol-3-yl]-2-[4-(1-methyl-cyclopropyl)-phenyl]-acetamide [Example 375]”, for which the IC50 was 0.0099 µM.

By IC50 is commonly meant the concentration needed to halve the response being measured.
